Reference: patent US10604512B2, “3-(1H-indol-2-yl)-1H-indazoles and therapeutic uses thereof” (Samumed, LLC, priority 2015, dated 2020)

Legend:
SW480 colon cancer cells = assay: Cell viability assay (CellTiter-Blue) in SW480 colon cancer cells; format: cell-based; settings: Homo sapiens, 96 h, four days; for inhibition at 10 µM: given where EC50 >10 μM, read-out: percent inhibition at 10 μM; for EC50: CellTiter-Blue
Outline: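 Four-day viability readout in SW480 cells: compound at 0.0045–10 μM (1:3 series), DMSO controls in eight replicates, CellTiter-Blue fluorescence after ~3 h. Values are regression-derived EC50s, or percent inhibition at 10 μM when EC50 exceeds 10 μM.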

IL-6 = assay: Inhibition of IL-6 in LPS-stimulated THP-1 human monocyte cells (HTRF); format: cell-based; settings: for EC50: IL-6 inhibition, LPS-stimulated THP-1 cells, HTRF; for inhibition at 10 µM: THP-1, printed beside >10 μM EC50, top concentration 10 μM, meaning not given, read-out: percentage in parentheses after EC50 >10
Outline: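 THP-1 cells serum-reduced (1% FBS, 24 h), then 5000 cells/well preincubated 2 h with compound (10-point 1:3 series from 10 μM, 0.1% DMSO) before 500 ng/mL LPS for 22 h at 37 °C. Secreted IL-6 quantified by HTRF 665/620 ratio; DMSO-normalised duplicates fitted to four-parameter EC50; above 10 μM, % inhibition at 10 μM given.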

SMILES | inhibition at 10 µM (SW480 colon cancer cells) [%] | EC50 (SW480 colon cancer cells) [µM] | EC50 (IL-6) [µM] | inhibition at 10 µM (IL-6) [%]
CCC(=O)Nc1cncc(-c2ccc3[nH]nc(-c4cc5c(-c6cccc(F)c6)cccc5[nH]4)c3c2)c1 [Compound 1, N-(5-(3-(4-(3-Fluorophenyl)-1H-indol-2-yl)-1H-indazol-5-yl)pyridin-3-yl) propionamide] | 13.3 | > 10 | 4.57 | –
Fc1cccc(-c2cccc3[nH]c(-c4n[nH]c5ccc(-c6cccnc6)cc45)cc23)c1 [Compound 4, 3-(4-(3-Fluorophenyl)-1H-indol-2-yl)-5-(pyridin-3-yl)-1H-indazole] | 3.7 | > 10 | 0.058 | –
CN(C)Cc1cncc(-c2ccc3[nH]nc(-c4cc5c(-c6cccc(F)c6)cccc5[nH]4)c3c2)c1 [Compound 13, 1-(5-(3-(4-(3-Fluorophenyl)-1H-indol-2-yl)-1H-indazol-5-yl)pyridin-3-yl)-N,N-dimethylmethanamine] | – | 0.494 | 0.036 | –
CCCC(=O)Nc1cncc(-c2ccc3[nH]nc(-c4cc5c(-c6cccc(F)c6)cccc5[nH]4)c3c2)c1 [Compound 17, N-(5-(3-(4-(3-Fluorophenyl)-1H-indol-2-yl)-1H-indazol-5-yl)pyridin-3-yl) butyramide] | 12.9 | > 10 | > 10 | 24.7
O=C(Nc1cncc(-c2ccc3[nH]nc(-c4cc5c(-c6cccc(F)c6)cccc5[nH]4)c3c2)c1)C1CC1 [Compound 20, N-(5-(3-(4-(3-Fluorophenyl)-1H-indol-2-yl)-1H-indazol-5-yl)pyridin-3-yl) cyclopropanecarboxamide] | 15.6 | > 10 | > 10 | 44.7
O=C(Nc1cncc(-c2ccc3[nH]nc(-c4cc5c(-c6cccc(F)c6)cccc5[nH]4)c3c2)c1)C1CCCCC1 [Compound 23, N-(5-(3-(4-(3-Fluorophenyl)-1H-indol-2-yl)-1H-indazol-5-yl)pyridin-3-yl) cyclohexanecarboxamide] | 20.2 | > 10 | > 10 | 34.2
Fc1cccc(-c2cccc3[nH]c(-c4n[nH]c5ccc(-c6ccccn6)cc45)cc23)c1 [Compound 28, 3-(4-(3-Fluorophenyl)-1H-indol-2-yl)-5-(pyridin-2-yl)-1H-indazole] | 17.1 | > 10 | 0.102 | –
CC(C)CC(=O)Nc1cncc(-c2ccc3[nH]nc(-c4cc5c(-c6ccc(F)cc6)cccc5[nH]4)c3c2)c1 [Compound 30, N-(5-(3-(4-(4-Fluorophenyl)-1H-indol-2-yl)-1H-indazol-5-yl)pyridin-3-yl)-3-methylbutanamide] | 38.2 | > 10 | > 10 | 27.9
CC(C)(C)C(=O)Nc1cncc(-c2ccc3[nH]nc(-c4cc5c(-c6ccc(F)cc6)cccc5[nH]4)c3c2)c1 [Compound 36, N-(5-(3-(4-(4-Fluorophenyl)-1H-indol-2-yl)-1H-indazol-5-yl)pyridin-3-yl) pivalamide] | 50.4 | > 10 | 0.277 | –
O=C(Nc1cncc(-c2ccc3[nH]nc(-c4cc5c(-c6ccc(F)cc6)cccc5[nH]4)c3c2)c1)c1ccccc1 [Compound 39, N-(5-(3-(4-(4-Fluorophenyl)-1H-indol-2-yl)-1H-indazol-5-yl)pyridin-3-yl) benzamide] | – | 3.81 | > 10 | 48.3
CN(C)Cc1cncc(-c2ccc3[nH]nc(-c4cc5c(-c6ccc(F)cc6)cccc5[nH]4)c3c2)c1 [Compound 41, 1-(5-(3-(4-(4-Fluorophenyl)-1H-indol-2-yl)-1H-indazol-5-yl)pyridin-3-yl)-N,N-dimethylmethanamine] | 10 | > 10 | > 10 | 22.9
CC(C)(C)CC(=O)Nc1cncc(-c2ccc3[nH]nc(-c4cc5c(-c6ccc(F)cc6)cccc5[nH]4)c3c2)c1 [Compound 44, N-(5-(3-(4-(4-Fluorophenyl)-1H-indol-2-yl)-1H-indazol-5-yl)pyridin-3-yl)-3,3-dimethylbutanamide] | 23.1 | > 10 | > 10 | 47.9
CCCC(=O)Nc1cncc(-c2ccc3[nH]nc(-c4cc5c(-c6ccc(F)cc6)cccc5[nH]4)c3c2)c1 [Compound 45, N-(5-(3-(4-(4-Fluorophenyl)-1H-indol-2-yl)-1H-indazol-5-yl)pyridin-3-yl)butyramide] | 5.3 | > 10 | > 10 | 44.6
Fc1ccc(-c2cccc3[nH]c(-c4n[nH]c5ccc(-c6cncnc6)cc45)cc23)cc1 [Compound 55, 3-(4-(4-Fluorophenyl)-1H-indol-2-yl)-5-(pyrimidin-5-yl)-1H-indazole] | 26.3 | > 10 | 0.488 | –
CCNCc1cncc(-c2ccc3[nH]nc(-c4cc5c(-c6ccccc6F)cccc5[nH]4)c3c2)c1 [Compound 62, N-((5-(3-(4-(2-Fluorophenyl)-1H-indol-2-yl)-1H-indazol-5-yl)pyridin-3-yl)methyl)ethanamine] | 44.5 | > 10 | 9.93 | –
CC(C)(C)CC(=O)Nc1cncc(-c2ccc3[nH]nc(-c4cc5c(-c6ccccc6F)cccc5[nH]4)c3c2)c1 [Compound 72, N-(5-(3-(4-(2-Fluorophenyl)-1H-indol-2-yl)-1H-indazol-5-yl)pyridin-3-yl)-3,3-dimethylbutanamide] | 16.2 | > 10 | > 10 | 35.3
O=C(Nc1cncc(-c2ccc3[nH]nc(-c4cc5c(-c6ccccc6F)cccc5[nH]4)c3c2)c1)C1CCCC1 [Compound 78, N-(5-(3-(4-(2-Fluorophenyl)-1H-indol-2-yl)-1H-indazol-5-yl)pyridin-3-yl) cyclopentanecarboxamide] | 8.3 | > 10 | > 10 | 54.1
FC1(F)CCN(Cc2cncc(-c3ccc4[nH]nc(-c5cc6c(-c7cccnc7)cccc6[nH]5)c4c3)c2)C1 [Compound 110, 5-(5-((3,3-Difluoropyrrolidin-1-yl)methyl)pyridin-3-yl)-3-(4-(pyridin-3-yl)-1H-indol-2-yl)-1H-indazole] | 20.3 | > 10 | > 10 | 32.2
O=C(Cc1ccccc1)Nc1cncc(-c2ccc3[nH]nc(-c4cc5c(-c6ccncc6)cccc5[nH]4)c3c2)c1 [Compound 122, 2-Phenyl-N-(5-(3-(4-(pyridin-4-yl)-1H-indol-2-yl)-1H-indazol-5-yl)pyridin-3-yl)acetamide] | 7.8 | > 10 | > 10 | 29.6
CCCC(=O)Nc1cncc(-c2ccc3[nH]nc(-c4cc5c(-c6ccncc6)cccc5[nH]4)c3c2)c1 [Compound 129, N-(5-(3-(4-(Pyridin-4-yl)-1H-indol-2-yl)-1H-indazol-5-yl)pyridin-3-yl) butyramide] | – | 9.53 | > 10 | 33.4
c1cc(-c2ccncc2)c2cc(-c3n[nH]c4ccc(-c5ccncc5)cc34)[nH]c2c1 [Compound 130, 5-(Pyridin-4-yl)-3-(4-(pyridin-4-yl)-1H-indol-2-yl)-1H-indazole] | 23.2 | > 10 | > 10 | 48.8
O=C(Nc1cncc(-c2ccc3[nH]nc(-c4cc5c(-c6ccncc6)cccc5[nH]4)c3c2)c1)C1CCCCC1 [Compound 135, N-(5-(3-(4-(Pyridin-4-yl)-1H-indol-2-yl)-1H-indazol-5-yl)pyridin-3-yl) cyclohexanecarboxamide] | 12.2 | > 10 | 9.9 | –
c1ccc(-c2ccc3[nH]nc(-c4cc5c(-c6ccncc6)cccc5[nH]4)c3c2)nc1 [Compound 140, 5-(Pyridin-2-yl)-3-(4-(pyridin-4-yl)-1H-indol-2-yl)-1H-indazole] | 37.8 | > 10 | 0.136 | –
Cc1ccncc1-c1ccc2[nH]nc(-c3cc4c(-c5ccccn5)cccc4[nH]3)c2c1 [Compound 145, 5-(4-Methylpyridin-3-yl)-3-(4-(pyridin-2-yl)-1H-indol-2-yl)-1H-indazole] | 36.7 | > 10 | 4.84 | –
O=C(Nc1cncc(-c2ccc3[nH]nc(-c4cc5c(-c6ccccn6)cccc5[nH]4)c3c2)c1)c1ccccc1 [Compound 151, N-(5-(3-(4-(Pyridin-2-yl)-1H-indol-2-yl)-1H-indazol-5-yl)pyridin-3-yl) benzamide] | 17.7 | > 10 | > 10 | 46.9
c1ccc(-c2cccc3[nH]c(-c4n[nH]c5ccc(-c6ccncc6)cc45)cc23)nc1 [Compound 158, 3-(4-(Pyridin-2-yl)-1H-indol-2-yl)-5-(pyridin-4-yl)-1H-indazole] | 36.9 | > 10 | 1.58 | –
CCCCC(=O)Nc1cncc(-c2ccc3[nH]nc(-c4cc5c(-c6ccccn6)cccc5[nH]4)c3c2)c1 [Compound 159, N-(5-(3-(4-(Pyridin-2-yl)-1H-indol-2-yl)-1H-indazol-5-yl)pyridin-3-yl) pentanamide] | 22.3 | > 10 | > 10 | 39.3
